The source of these data is patent US9790169B2, “IDO inhibitors” (BRISTOL-MYERS SQUIBB COMPANY, priority 2015, dated 2017).

The assay has as its target human IDO1 (Homo sapiens, UniProt P14902). The experiment in a line: Assessment of human IDO-1 inhibitory activity in Hela cells (Interferon-gamma stimulated HeLa cells, Ehrlich reagent, absorbance 490 nm). The assay is classed as cell-based. More on the design: endogenous in cells; host or cells: HeLa cells stimulated with interferon-gamma. As to conditions: Hela Human IDO-1 cellular assay. Summed up:
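HeLa cells pre-incubated with compound 1 h at 37 °C, then stimulated with human IFN-γ (10 ng/ml final) or murine IFN-γ (5 ng/ml final) for 18 h. Kynurenine read with Ehrlich reagent at 490 nm after TCA (3%) and 50 °C treatment; IC50 normalized to unstimulated (100%) and IFN-γ-only (0%) wells.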

Sequence of human IDO1 (P14902 whole entry): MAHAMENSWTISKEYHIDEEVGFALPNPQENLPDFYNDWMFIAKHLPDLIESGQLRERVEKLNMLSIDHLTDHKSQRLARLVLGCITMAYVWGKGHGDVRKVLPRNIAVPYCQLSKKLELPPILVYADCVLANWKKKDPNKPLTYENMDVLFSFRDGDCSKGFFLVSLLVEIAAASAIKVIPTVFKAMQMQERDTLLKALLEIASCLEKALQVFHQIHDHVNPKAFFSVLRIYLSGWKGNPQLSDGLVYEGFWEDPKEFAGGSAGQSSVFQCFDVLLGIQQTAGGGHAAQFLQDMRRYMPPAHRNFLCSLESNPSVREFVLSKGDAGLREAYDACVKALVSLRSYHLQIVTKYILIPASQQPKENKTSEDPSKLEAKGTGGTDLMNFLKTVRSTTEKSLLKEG

The compound `CCOc1ncc(Nc2cc([C@H](CC)CNS(=O)(=O)C(F)(F)F)ccc2N(CC)C2CCOCC2)cn1` [Example 1329, (S)-N-(2-(3-((2-ethoxypyrimidin-5-yl)amino)-4-(ethyl(tetrahydro-2H-pyran-4-yl)amino)phenyl)butyl)-1,1,1-trifluoromethanesulfonamide] had a concentration for half-maximal inhibition (IC50) of less than 5 nM. The result for `CCOc1ncc(Nc2cc([C@H](CC)CC(N)=O)ccc2N(CC)C2CCOCC2)cn1` [Example 1332, (R)-3-(3-((2-Ethoxypyrimidin-5-yl)amino)-4-(ethyl(tetrahydro-2H-pyran-4-yl)amino)phenyl)pentanamide] reads more than 50 nM; that for `CCOc1ncc(Nc2cc([C@H](CC)CC#N)ccc2N(CC)C2CCOCC2)cn1` [Example 1333, (R)-3-(3-((2-Ethoxypyrimidin-5-yl)amino)-4-(ethyl(tetrahydro-2H-pyran-4-yl)amino)phenyl)pentanenitrile], more than 50 nM.

`CCOc1ncc(Nc2cc([C@H](CC)Cc3cnco3)ccc2N(CC)C2CCOCC2)cn1` [Example 1335, (R)-N2-(2-Ethoxypyrimidin-5-yl)-N1-ethyl-4-(1-(oxazol-5-yl)butan-2-yl)-N1-(tetrahydro-2H-pyran-4-yl)benzene-1,2-diamine] displayed an IC50 of more than 50 nM. To `CCOc1ncc(Nc2cc([C@H](CC)Cc3ncno3)ccc2N(CC)C2CCOCC2)cn1` [Example 1337, (R)-4-(1-(1,2,4-Oxadiazol-5-yl)butan-2-yl)-N2-(2-ethoxypyrimidin-5-yl)-N1-ethyl-N1-(tetrahydro-2H-pyran-4-yl)benzene-1,2-diamine] belongs less than 50 nM. For the compound `CCOc1ncc(Nc2cc([C@H](CC)Cc3nnc[nH]3)ccc2N(CC)C2CCOCC2)cn1` [Example 1338, (R)-4-(1-(4H-1,2,4-Triazol-3-yl)butan-2-yl)-N2-(2-ethoxypyrimidin-5-yl)-N1-ethyl-N1-(tetrahydro-2H-pyran-4-yl)benzene-1,2-diamine], the concentration for half-maximal inhibition (IC50) was less than 50 nM.

`CCOc1ncc(Nc2cc([C@H](CC)Cc3nnn[nH]3)ccc2N(CC)C2CCOCC2)cn1` [Example 1339, (R)-4-(1-(1H-Tetrazol-5-yl)butan-2-yl)-N2-(2-ethoxypyrimidin-5-yl)-N1-ethyl-N1-(tetrahydro-2H-pyran-4-yl)benzene-1,2-diamine] showed an IC50 of less than 5 nM.

The compound `CCN(c1ccc([C@H](CNS(=O)(=O)C(F)(F)F)COC)cc1Nc1ccc(C#N)cc1)C1CCOCC1` [Example 1342, (R)-N-(2-(3-((4-cyanophenyl)amino)-4-(ethyl(tetrahydro-2H-pyran-4-yl)amino)phenyl)-3-methoxypropyl)-1,1,1-trifluoromethanesulfonamide] yielded an IC50 of less than 50 nM.

In turn, `CCOc1ncc(Nc2cc([C@H](CC)CC(=O)Nc3ncco3)ccc2N(CC)C2CCOCC2)cn1` [Example 1346, (R)-3-(3-((2-Ethoxypyrimidin-5-yl)amino)-4-(ethyl(tetrahydro-2H-pyran-4-yl)amino)phenyl)-N-(oxazol-2-yl)pentanamide] had an IC50 of less than 50 nM.

In the case of `CCOc1ncc(Nc2cc([C@@H](CC)CC(=O)O)ccc2N2C3CCC2CC(c2ccc(F)cc2)C3)cn1` (stereo partly drawn) [Example 1360, (S)-3-(3-((2-Ethoxypyrimidin-5-yl)amino)-4-(3-(4-fluorophenyl)-8-azabicyclo[3.2.1]octan-8-yl)phenyl)pentanoic acid], the IC50 is less than 5 nM. As to `CCNC(=O)NC[C@@H](CC)c1ccc(N(CC)C2CCOCC2)c(Nc2cnc(OCC)nc2)c1` [Example 1366, (S)-1-(2-(3-((2-Ethoxypyrimidin-5-yl)amino)-4-(ethyl(tetrahydro-2H-pyran-4-yl)amino)phenyl)butyl)-3-ethylurea], the half-inhibitory concentration (IC50) was more than 50 nM.

“(R)-3-(3-((4-chlorophenyl)amino)-4-((1,1-dioxidotetrahydro-2H- thiopyran-4-yl)(ethyl)amino) phenyl)-4-isopropoxybutanoic acid [Example 330]” showed an IC50 of less than 5 nM. The result for “(R)-3-(4-((1,1-dioxidotetrahydro-2H-thiopyran-4-yl)(ethyl)amino)- 3-((2-ethoxypyrimidin-5- yl)amino)phenyl)-4- isopropoxybutanoic acid [Example 333]” reads more than 50 nM; that for “(R)-3-(4-((1,1-dioxidotetrahydro-2H-thiopyran-4-yl)(ethyl)amino)- 3-((2-methoxypyrimidin-5- yl)amino)phenyl)-4- isopropoxybutanoic acid [Example 332]”, more than 50 nM.
